Measured values reported in patent publication US20230100838A1 (Revolution Medicines, Inc., priority 2019, published 2023).

How the values were obtained:
[1] = target: T1, GDP-loaded K-Ras (1-169) G12D, C51S, C80L, C118S (Homo sapiens, UniProt P01116, C118S/C51S/C80L/G12D); test: K-Ras G12D(GDP) cross-linking assay (conjugate formation, TOF mass spectrometry); assay type: binding; parameters: key: 0: No observed x-linking; +: 0 < x ≤ 20; ++: 20 < x ≤ 40; +++: 40 < x ≤ 100; settings: Table 5; percent covalently modified K-Ras by MS; room temperature; typical compound conc. 2, 10, 25 μM, endpoints 1 and 24 h
T1 construct: GDP-loaded K-Ras (1-169) G12D, C51S, C80L, C118S
Protocol: (§1) Protocol: K-Ras G12D(GDP) Cross-Linking Assay
(§2) Note: while the following protocol outlines the procedure for K-Ras G12D(GDP), a person of skill in the art may substitute other Ras proteins, and may also substitute a non-hydrolyzable GTP analog for GDP to study GTP bound Ras protein.
(§3) GDP-loaded K-Ras (1-169) G12D, C51S, C80L, C118S and GDP-loaded K-Ras (1-169) C51S, C80L, C118S were adjusted to 50 μM in K-Ras assay buffer (12.5 mM HEPES, 75 mM NaCl and 1 mM MgCl2 at pH 7.4). A 5 μL aliquot of each protein solution was added to each well of a 96-well microplate containing 40 μL of assay buffer. Initial compound stocks were prepared in DMSO at 100 times their final assay concentration. Compounds were then diluted 10-fold into K-Ras assay buffer to 10 times their final concentration. A 5 μL aliquot of each diluted compound solution was added to each protein solution in the 96-well microplate to initiate the reaction, which then proceeded at room temperature. Typical final compound concentrations were 2, 10, and 25 μM. At each time point, the reactions were analyzed immediately or quenched with 5 μL of a 5% formic acid solution and kept at 4° C. until analysis. Typical assay endpoints were 1 and 24 h.
(§4) Data collection took place on an Agilent 6230 TOF Mass Spectrometer. Complete reactions were injected onto a C4 reverse-phase column to separate protein from buffer components prior to entering the mass spectrometer. The proteins were eluted from the column by increasing acetonitrile fraction in the mobile phase and fed directly into the mass analyzer. Initial analysis of raw data took place in Agilent MassHunter BioConfirm software and consisted of deconvolution of multiple protein charge states with the maximum entropy algorithm, with a mass step of 1 Da. The heights of all deconvoluted protein masses were exported for further data analysis. The percent modification of each protein was then determined by calculating the peak height of the covalently modified K-Ras species as a percentage of the sum total of K-Ras protein peak height.

[2] = target: T2, GDP-loaded K-Ras (1-169) C51S, C80L, C118S (Homo sapiens, UniProt P01116, C118S/C51S/C80L); test: K-Ras WT (GDP) cross-linking assay (conjugate formation, TOF mass spectrometry); assay type: binding; parameters: key: 0: No observed x-linking; +: 0 < x ≤ 20; ++: 20 < x ≤ 40; +++: 40 < x ≤ 100; settings: Table 5; percent covalently modified K-Ras by MS; room temperature; typical compound conc. 2, 10, 25 μM, endpoints 1 and 24 h
T2 construct: GDP-loaded K-Ras (1-169) C51S, C80L, C118S
Protocol: as §1, §2, §3, §4

| Compound | G12D x-linking (%) [1] | WT x-linking (%) [2] |
| --- | --- | --- |
| COC(=O)[C@H]1CN1C(=O)N1CCN(c2nc(OC[C@@H]3CCCN3C)nc3c2CCN(c2cccc4cccc(C)c24)C3)C[C@@H]1CC#N [Example 108, methyl (R)-1-((S)-2-(cyanomethyl)-4-(7-(8-methylnaphthalen-1-yl)-2-(((S)-1-methylpyrrolidin-2-yl)methoxy)-5,6,7,8-tetrahydropyrido[3,4-d]pyrimidin-4-yl)piperazine-1-carbonyl)aziridine-2-carboxylate] | + (0 < x ≤ 20) | + (0 < x ≤ 20) |
| COc1ccccc1CN=C=N[C@@H]1CCN(c2nc(OC[C@@H]3CCCN3C)nc3c2CCN(c2cccc4cccc(C)c24)C3)C[C@@H]1CC#N [Example 102, 2-((3S,4R)-4-((((2-methoxybenzyl)imino)methylene)amino)-1-(7-(8-methylnaphthalen-1-yl)-2-(((S)-1-methylpyrrolidin-2-yl)methoxy)-5,6,7,8-tetrahydropyrido[3,4-d]pyrimidin-4-yl)piperidin-3-yl)acetonitrile] | + (0 < x ≤ 20) | + (0 < x ≤ 20) |
| Cc1ccnc(C(C)C)c1-n1c(=O)nc(N2[C@H](C)CN(C(=O)[C@H]3CN3)C[C@@H]2C)c2cc(F)c(-c3c(O)cccc3F)nc21 [Example 135] | 0 | 0 |
| Cc1ccnc(C(C)C)c1-n1c(=O)nc(N2[C@@H](C)CN(C(=O)[C@H]3CN3)C[C@@H]2C)c2cc(F)c(-c3c(O)cccc3F)nc21 [Example 136] | + (0 < x ≤ 20) | + (0 < x ≤ 20) |
| CO[C@@H]1CCCC[C@H]1N=C=NC1CCN(c2nc(OC[C@@H]3CCCN3C)nc3c2CCN(c2cccc4cccc(C)c24)C3)CC1 [Example 147] | + (0 < x ≤ 20) | + (0 < x ≤ 20) |
| Cc1ccc2[nH]ncc2c1N1CCc2c(nc(OC[C@@H]3CCCN3C)nc2N2CCN(C(=O)[C@@H]3CN3)[C@@H](CC#N)C2)C1 [Example 111, 2-((S)-1-((S)-aziridine-2-carbonyl)-4-(7-(5-methyl-1H-indazol-4-yl)-2-(((S)-1-methylpyrrolidin-2-yl)methoxy)-5,6,7,8-tetrahydropyrido[3,4-d]pyrimidin-4-yl)piperazin-2-yl)acetonitrile] | + (0 < x ≤ 20) | 0 |
| CN1CCC[C@H]1COc1nc2c(c(N3CCN(C(=O)[C@@H]4CN4)[C@@H](CC#N)C3)n1)CCN(c1cccc3cccc(Cl)c13)C2 [Example 113, 2-((S)-1-((S)-aziridine-2-carbonyl)-4-(7-(8-chloronaphthalen-1-yl)-2-(((S)-1-methylpyrrolidin-2-yl)methoxy)-5,6,7,8-tetrahydropyrido[3,4-d]pyrimidin-4-yl)piperazin-2-yl)acetonitrile] | + (0 < x ≤ 20) | + (0 < x ≤ 20) |
| COCCN1C[C@@H]1C(=O)N1CCN(c2nc(OC[C@@H]3CCCN3C)nc3c2CCN(c2cccc4cccc(C)c24)C3)C[C@@H]1CC#N (stereo partly drawn) [Example 105, 2-((S)-1-((R)-1-(2-methoxyethyl)aziridine-2-carbonyl)-4-(7-(8-methylnaphthalen-1-yl)-2-(((S)-1-methylpyrrolidin-2-yl)methoxy)-5,6,7,8-tetrahydropyrido[3,4-d]pyrimidin-4-yl)piperazin-2-yl)acetonitrile] | ++ (20 < x ≤ 40) | + (0 < x ≤ 20) |
| CC(=O)N1C[C@@H]1CN1CCN(c2nc(OC[C@@H]3CCCN3C)nc3c2CCN(c2cccc4cccc(C)c24)C3)C[C@@H]1CC#N [Example 119, 2-((S)-1-(((S)-1-acetylaziridin-2-yl)methyl)-4-(7-(8-methylnaphthalen-1-yl)-2-(((S)-1-methylpyrrolidin-2-yl)methoxy)-5,6,7,8-tetrahydropyrido[3,4-d]pyrimidin-4-yl)piperazin-2-yl)acetonitrile] | + (0 < x ≤ 20) | + (0 < x ≤ 20) |
| CN1CCC[C@H]1COc1nc2c(c(N3CCN(C(=O)[C@@H]4CN4)[C@@H](CC#N)C3)n1)CCN(c1cc(O)cc3ccccc13)C2 [Example 115] | + (0 < x ≤ 20) | 0 |
| CC(=O)N1C[C@H]1CN1CCN(c2nc(OC[C@@H]3CCCN3C)nc3c2CCN(c2cccc4cccc(C)c24)C3)C[C@@H]1CC#N [Example 118, 2-((S)-1-(((R)-1-acetylaziridin-2-yl)methyl)-4-(7-(8-methylnaphthalen-1-yl)-2-(((S)-1-methylpyrrolidin-2-yl)methoxy)-5,6,7,8-tetrahydropyrido[3,4-d]pyrimidin-4-yl)piperazin-2-yl)acetonitrile] | + (0 < x ≤ 20) | + (0 < x ≤ 20) |
| CO[C@H]1CCCC[C@H]1N=C=NC1CCN(c2nc(OC[C@@H]3CCCN3C)nc3c2CCN(c2cccc4cccc(C)c24)C3)CC1 [Example 148] | + (0 < x ≤ 20) | + (0 < x ≤ 20) |
| Cc1cccc2cccc(N3CCc4c(nc(OC[C@@H]5CCCN5C)nc4N4CCN(C(=O)[C@H]5CN5S(C)(=O)=O)[C@@H](CC#N)C4)C3)c12 (some centres unmarked) [Example 131] | + (0 < x ≤ 20) | + (0 < x ≤ 20) |
| Cc1cccc2cccc(N3CCc4c(nc(OC[C@@H]5CCCN5C)nc4N4CCN(C(=O)[C@@H]5CN5C)[C@@H](CC#N)C4)C3)c12 (stereo partly drawn) [Example 107, 2-((S)-1-((S)-1-methylaziridine-2-carbonyl)-4-(7-(8-methylnaphthalen-1-yl)-2-(((S)-1-methylpyrrolidin-2-yl)methoxy)-5,6,7,8-tetrahydropyrido[3,4-d]pyrimidin-4-yl)piperazin-2-yl)acetonitrile] | + (0 < x ≤ 20) | 0 |
| O=C([C@@H]1CN1)N1CCN2c3ncnc4cc(-c5c(O)cccc5F)c(Cl)c(c34)OC[C@@H]2C1 [Example 121] | 0 | 0 |
| CC(=O)N1C[C@@H]1C(=O)N1CCN(c2nc(OC[C@@H]3CCCN3C)nc3c2CCN(c2cccc4cccc(C)c24)C3)C[C@@H]1CC#N [Example 98, 2-((S)-1-((R)-1-acetylaziridine-2-carbonyl)-4-(7-(8-methylnaphthalen-1-yl)-2-(((S)-1-methylpyrrolidin-2-yl)methoxy)-5,6,7,8-tetrahydropyrido[3,4-d]pyrimidin-4-yl)piperazin-2-yl)acetonitrile] | + (0 < x ≤ 20) | 0 |
| CO[C@H]1CCCC[C@@H]1N=C=NC1CCN(c2nc(OC[C@@H]3CCCN3C)nc3c2CCN(c2cccc4cccc(C)c24)C3)CC1 [Example 145] | + (0 < x ≤ 20) | + (0 < x ≤ 20) |
| CO[C@H]1CCC[C@H]1N=C=NC1CCN(c2nc(OC[C@@H]3CCCN3C)nc3c2CCN(c2cccc4cccc(C)c24)C3)CC1 (single isomer, unassigned) [Example 150] | + (0 < x ≤ 20) | + (0 < x ≤ 20) |
| C#CCCN1CCC[C@H]1COc1nc2c(c(N3CCN(C(=O)[C@@H]4CN4)[C@@H](CC#N)C3)n1)CCN(c1cccc3cccc(C)c13)C2 [Example 117, 2-((S)-1-((S)-aziridine-2-carbonyl)-4-(2-(((S)-1-(but-3-yn-1-yl)pyrrolidin-2-yl)methoxy)-7-(8-methylnaphthalen-1-yl)-5,6,7,8-tetrahydropyrido[3,4-d]pyrimidin-4-yl)piperazin-2-yl)acetonitrile] | + (0 < x ≤ 20) | 0 |
| CO[C@@H]1CCCC[C@@H]1N=C=NC1CCN(c2nc(OC[C@@H]3CCCN3C)nc3c2CCN(c2cccc4cccc(C)c24)C3)CC1 [Example 146] | + (0 < x ≤ 20) | + (0 < x ≤ 20) |
| Cc1cccc2cccc(N3CCc4c(nc(OC[C@@H]5CCCN5C)nc4N4CC[C@@H](NC(=O)[C@H]5CN5)[C@@H](CC#N)C4)C3)c12 [Example 125] | + (0 < x ≤ 20) | + (0 < x ≤ 20) |
| Cc1ccnc(C(C)C)c1-n1c(=O)nc(N2[C@H](C)CN(C(=O)[C@@H]3CN3)C[C@@H]2C)c2cc(F)c(-c3c(O)cccc3F)nc21 [Example 140] | 0 | 0 |
